# In US10864225B2, “Treatment of metabolic disorders in equine animals” (Boehringer Ingelheim Vetmedica GmbH, priority 2013, dated 2020):
smiles,measurement,setting,value
N#Cc1ccc([C@@H]2O[C@H](CO)[C@@H](O)[C@H](O)[C@H]2O)cc1Cc1ccc(C2CC2)cc1.O=C(O)[C@@H]1CCCN1,mechanical stability of the crystals,allows grinding of the crystals,high mechanical stability
same,physical and chemical stability,under various environmental conditions and during the production of a medicament,high physical and chemical stability
